Legend:
[1] = system: Boophilus microplus (Biarra-Stamm); assay: B-4 acaricidal action, injection into engorged female ticks; format: in vivo; conditions: dose per tick at which 9 of 10 females lay non-hatching eggs after 30 days
Description: B-4. Akarizide Wirkung gegen Boophilus microplus (Biarra-Stamm
Auf einer PVC-Platte wird waagrecht ein Klebstreifen so befestigt, das darauf 10 mit Blut vollgesogene Zecken-Weibchen von Boophilus microplus (Biarra-Stamm) nebeneinander in einer Reihe mit dem Rücken aufgeklebt werden können. Jeder Zecke wird mit einer Injektionsnadel 1 µl einer Flüssigkeit injiziert, die eine 1:1-Mischung von Polyethylenglykol und Aceton darstellt und in der als bestimmte Wirkstoffmenge […] pro Zecke gelöst ist. Kontrolltiere erhalten eine wirkstofffreie Injektion. Nach der Behandlung werden die Tiere unter Normalbedingungen in einem Insektarium bei ca. 28°C und 80 % relativer Luftfeuchtigkeit gehalten, bis die Eiablage erfolgt und die Larven aus den Eiern der Kontrolltiere geschlüpft sind.
Die Aktivität einer geprüften Substanz wird mit der IR90 bestimmt, d.h. es wird jene Wirkstoffdosis ermittelt, bei der noch nach 30 Tagen 9 von 10 Zeckenweibchen (= 90 %) Eier ablegen, die nicht schlupffähig sind.

[2] = system: L1-Larven von Lucilia sericata; assay: B-3 action against L1 larvae in larval culture medium; format: in vivo; conditions: 100 ppm, after 4 days
Description: B-3. Wirkung gegen L1-Larven von Lucilia sericata
1 ml einer wässrigen Suspension der zu prüfenden Aktivsubstanz wird so mit 3 ml eines speziellen Larvenzuchtmediums bei ca. 50°C vermischt, dass ein Homogenisat von wahlweise 250 ppm oder 125 ppm Wirkstoffgehalt entsteht. In jede Reagenzglas-Probe werden ca. 30 Lucilia-Larven (L1) eingesetzt. Nach 4 Tagen wird die Mortalitätsrate bestimmt. Die Verbindungen der Formel 1 erzielten mit 250 ppm, die Verbindungen Nr. 1.1, 1.3, 1.15, 1.22, 1.27, 1.35, 1.37, 1.38 und 1.43 bereits bei 100 ppm eine Wirkung von 100 %.

[3] = system: Haemonchus contortus und Trychostrongylus colubriformis; assay: B-5 test on sheep infected with nematodes, worm egg count in faeces; format: in vivo, Schafe; conditions: single dose
Description: B-5. Versuch an mit Nematoden (Haemonchus concortus und Trichostrongylus colubriformis) infizierten Schafen
Der Wirkstoff wird als Suspension formuliert mit einer Magensonde oder durch Injektion in den Pansen eines Schafes gegeben, das mit Haemonchus contortus und Trychostrongylus colubriformis künstlich infiziert worden ist. Pro Dosis werden 1 bis 3 Tiere verwendet. Jedes Schaf wird nur einmal mit einer einzigen Dosis behandelt, und zwar wahlweise mit 2 mg oder 1 mg/kg Körpergewicht. Die Evaluierung erfolgt durch Vergleich der Anzahl der vor und nach Behandlung im Kot der Schafe ausgeschiedenen Wurmeier.
Gleichzeitig und gleichartig infizierte aber unbehandelte Schafe dienen als Kontrolle. Schafe, die mit einer der Verbindungen der Formel I bei 1 mg/kg behandelt wurden, zeigten im Vergleich zu unbehandelten, aber infizierten Vergleichsgruppen keinen Nematodenbefall (= komplette Reduktion der Wurmeier im Kot). […] Schafe, die mit 0,1 mg/kg Köpergewicht der Verbindung Nr. 1.1 (A) und der Verbindung Nr. 1.15 (B) behandelt wurden, zeigten im Vergleich zur Kontrolle eine 77%ige (A) und eine 97Xige (B) Wirkung, während 5-0-(2,3,4,6-Tetra-0-acetyl-1-0-glucanopyranosyl)-milbemycin A3 bei dieser Konzentration unwirksam war.

In the case of “5-0-(1-0-Galactopyranosyl)-milbemycin D [1.38]”, the IR90 [1] is reported as 0,5 µg and the “Wirkung (Mortalitätsrate)” value [2] is reported as 100%.
In the case of “5-0-(2,3,4,6-Tetra-0-acetyl-1-0-glucanopyranosyl)-milbemycin A3 [Tetraacetylglucopyranosyl-milbemycin A3]”, the “Wirkung im Vergleich zur Kontrolle” value ([3]; 0,1 mg/kg Körpergewicht) is reported as “unwirksam” and the “Wirkung (Reduktion der Wurmeier im Kot)” value ([3]; 2 mg/kg) is reported as “annähernd wirkungslos”.
